Data from patent publication US8034931B2, “Process for producing substituted aminoquinazolinone derivative, intermediate therefor, and pest control agent” (Nihon Nohyaku Co., Ltd., priority 2003, dated 2011).

How the values were obtained:
Type in all cases: in vivo
[1] = system: Green Peach Aphid (Myzus persicae); assay: Insecticidal effect on green peach aphid, foliar spray on potted Chinese cabbage (Test Example 1); conditions: 500 ppm liquid chemical, sprayed on Chinese cabbage stalks and leaves, six days after the spraying
Description: Insecticidal Effect on Green Peach Aphid (Myzus persicae)
A Chinese cabbage plant was planted in each of plastic pots with a diameter of 8 cm and a height of 8 cm, and green peach aphids were propagated on the plant, after which the parasites in each pot were counted. A preparation containing each compound of the present invention listed in Tables 2 to 4 or each comparative compound as an active ingredient was dispersed in and diluted with water to obtain a 500 ppm liquid chemical. The stalks and leaves of the potted Chinese cabbage plants were sprayed with the liquid chemical and air-dried, and then the pots were stored in a greenhouse. Six days after the spraying, green peach aphids parasitic on each Chinese cabbage plant were counted and the control efficacy was calculated by the following equation, whereby the insecticidal effect was judged according to the criterion shown below. Control efficacy=100−{(T×Ca)/(Ta×C)}×100 • Ta: number of parasites before spraying in treated group, • T: number of parasites after spraying in treated group, • Ca: number of parasites before spraying in untreated group, • C: number of parasites after spraying in untreated group.

[2] = system: Greenhouse Whitefly (Trialeuroddes vaporariorum); assay: Insecticidal effect on greenhouse whitefly, sprayed tomato leaf (Test Examples 2 and 4); conditions: 100 ppm liquid chemical, sprayed tomato leaf, 20 adult whiteflies, four days after the inoculation
Description: Insecticidal Effect on Greenhouse Whitefly (Trialeuroddes vaporariorum)
A preparation containing each compound of the present invention listed in Tables 2 to 4 or each comparative compound as an active ingredient was dispersed in and diluted with water to obtain a 100 ppm liquid chemical. A tomato leaf set in a 20-ml vial with its stalk immersed in water was sprayed with the liquid chemical with a spray gun on a turntable. After air-dryness, the treated leaf was placed in a glass cylinder and inoculated with 20 adult greenhouse whiteflies. After the treatment, the glass cylinder was placed in a greenhouse. Four days after the inoculation, the living insects were counted. The corrected mortality was calculated according to the following equation and the insecticidal effect was judged according to the criterion shown below.
[formula] Criterion for Judgment:
Insecticidal Effect on Greenhouse (Trialeuroddes vaporariorum) at a Low Dosage
The same test as in Test Example 2 was carried out except for changing the concentration of the liquid chemical to 3 ppm.

[3] = system: White Peach Scale (Pseudaulacaspis pentagona); assay: Insecticidal effect on white peach scale, sprayed potato tuber (Test Examples 3 and 5); conditions: 100 ppm liquid chemical, potato tuber with first-instar larvae, fourteen days after the treatment
Description: Insecticidal Effect on White Peach Scale (Pseudaulacaspis pentagona)
A preparation containing each compound of the present invention listed in Tables 2 to 4 or each comparative compound as an active ingredient was dispersed in and diluted with water to obtain a 100 ppm liquid chemical. A potato tuber with first-instar larvae of white peach scale as parasites was sprayed with the liquid chemical with a spray gun. Fourteen days after the treatment, the living insects were counted. In the same manner as in Test Example 2, the corrected mortality was calculated and the insecticidal effect was judged.
Insecticidal Effect on White Peach Scale (Pseudaulacaspis pentagona) at a Low Dosage
The same test as in Test Example 3 was carried out except for changing the concentration of the liquid chemical to 30 ppm.

| Compound | Test Example 1: insecticidal effect (control efficacy) [1] | Test Example 2: insecticidal effect (corrected mortality) [2] | Test Example 3: insecticidal effect (corrected mortality) [3] |
| --- | --- | --- | --- |
| O=C(c1cccc(C(F)(F)F)c1)N1C(=O)N(N=Cc2cccnc2)Cc2cc(C(F)(C(F)(F)F)C(F)(F)F)ccc21 [compound 26] | A (Control efficacy 100%) | A (Corrected mortality 100%) | A (Corrected mortality 100%) |
| O=C(c1ccc(C(F)(F)F)cc1)N1C(=O)N(N=Cc2cccnc2)Cc2cc(C(F)(C(F)(F)F)C(F)(F)F)ccc21 [compound 27] | A (Control efficacy 100%) | A (Corrected mortality 100%) | A (Corrected mortality 100%) |
| O=C(c1ccc(F)cc1)N1C(=O)N(N=Cc2cccnc2)Cc2cc(C(F)(C(F)(F)F)C(F)(F)F)ccc21 [compound 28] | A (Control efficacy 100%) | A (Corrected mortality 100%) | A (Corrected mortality 100%) |
| COc1ccccc1C(=O)N1C(=O)N(N=Cc2cccnc2)Cc2cc(C(F)(C(F)(F)F)C(F)(F)F)ccc21 [compound 29] | A (Control efficacy 100%) | A (Corrected mortality 100%) | A (Corrected mortality 100%) |
| Cc1cccc(C(=O)N2C(=O)N(N=Cc3cccnc3)Cc3cc(C(F)(C(F)(F)F)C(F)(F)F)ccc32)c1 [compound 30] | A (Control efficacy 100%) | A (Corrected mortality 100%) | A (Corrected mortality 100%) |
| O=C(c1ccc(Cl)c(Cl)c1)N1C(=O)N(N=Cc2cccnc2)Cc2cc(C(F)(C(F)(F)F)C(F)(F)F)ccc21 [compound 31] | A (Control efficacy 100%) | A (Corrected mortality 100%) | A (Corrected mortality 100%) |
| O=C(c1ccc(-c2ccccc2)cc1)N1C(=O)N(N=Cc2cccnc2)Cc2cc(C(F)(C(F)(F)F)C(F)(F)F)ccc21 [compound 32] | A (Control efficacy 100%) | A (Corrected mortality 100%) | A (Corrected mortality 100%) |
| CN1C(=O)N(N=Cc2cccnc2)Cc2cc(C(F)(C(F)(F)F)C(F)(F)F)ccc21 [compound No. 1, 1-methyl-3-(3-pyridylmethylideneamino)-3,4-dihydro-6-[1,2,2,2-tetrafluoro-1-(trifluoromethyl)ethyl]-2(1H)-quinazolinone] | A (Control efficacy 100%) | A (Corrected mortality 100%) | A (Corrected mortality 100%) |
| CCCN1C(=O)N(N=Cc2cccnc2)Cc2cc(C(F)(C(F)(F)F)C(F)(F)F)ccc21 [compound No. 3] | A (Control efficacy 100%) | A (Corrected mortality 100%) | A (Corrected mortality 100%) |
| CC(=O)N1C(=O)N(N=Cc2cccnc2)Cc2cc(C(F)(C(F)(F)F)C(F)(F)F)ccc21 [compound No. 8, 1-acetyl-3-(3-pyridylmethylideneamino)-3,4-dihydro-6-[1,2,2,2-tetrafluoro-1-(trifluoromethyl)ethyl]-2(1H)-quinazolinone] | A (Control efficacy 100%) | A (Corrected mortality 100%) | A (Corrected mortality 100%) |
| O=C(c1cccc2ccccc12)N1C(=O)N(N=Cc2cccnc2)Cc2cc(C(F)(C(F)(F)F)C(F)(F)F)ccc21 [compound No. 33] | A (Control efficacy 100%) | A (Corrected mortality 100%) | A (Corrected mortality 100%) |
